Measurements taken from US20250144247A1, “FORMULATIONS TO ENHANCE THE DELIVERY OF GENE THERAPY VECTORS” (priority 2023, published 2025).

Key:
[1] = system: human airway epithelial cells (HAE); experiment: Transepithelial electrical resistance (TEER) of HAE after apical reagent; format: cell-based; details: apical 5 minutes; LPC 0.1%, EGTA 250 mM, doxorubicin 5 μM, NaCl 3.6%, Infasurf 35 mg/ml
Procedure: The University of Iowa In Vitro Models and Cell Culture Core cultured and maintained human airway epithelial cells (HAE) as previously described (33). Briefly, following enzymatic disassociation of trachea and bronchus epithelia, the cells were seeded onto collagen-coated, polycarbonate transwell inserts (0.4 μm pore size; surface area=0.33 cm^2; Corning Costar, Cambridge, MA). HAE were submerged in Ultroser G (USG) medium for 24 hours (37° C. and 5% CO2) at which point the apical media is removed to encourage polarization and differentiation at an air-liquid interface. Transepithelial electrical resistance was measured using an Ohmmeter […]
Disrupting the epithelial tight junctions allows Ad5-based viral vectors access to their basolaterally localized coxsackie and adenovirus receptor (CXADR) (12). Unless otherwise specified, these studies use the Ad5 serotype. […] First, reagents were applied to the apical surface of HAE for 5 minutes and then TEER was measured using an ohmmeter. […] In separate cultures, Ad-GFP (MOI=250) in 50 μl of DMEM combined 1:1 with the test reagents was applied to the apical surface for 2 hours. 5 days post-treatment, cells were imaged by fluorescence microscopy.

[2] = system: human airway epithelial cells (HAE); format: cell-based; details: for Ad gene transfer: Ad-GFP MOI=250 combined 1:1 with reagent, apical 2 hours, imaged 5 days, LPC 0.1%, EGTA 250 mM, doxorubicin 5 μM, NaCl 3.6%, Infasurf; for Ad-GFP gene transfer at 1-7% tonicities: Ad-GFP MOI=250, apical 2 h, 5 days
[3] = Osmolarity and pH of the solutions; format: physicochemical
[4] = system: human airway epithelia (HAE); experiment: Endosomal acidification inhibitors on NaCl enhanced Ad5-GFP transduction; format: cell-based; details: pre-treated 2 h with CQ 200 μM or bafilomycin A1 1 μM; Ad5-GFP MOI=250 with NaCl 3.6%
Description: GFP expression was quantified by flow cytometry 5 days later. […] GFP was quantified 5 days post-transduction.

Row | Molecule | transepithelial electrical resistance (TEER) [1] | Ad gene transfer [2] | Osmolarity ([3]; 1% solution) | Osmolarity ([3]; 2% solution) | Osmolarity ([3]; 3% solution) | Osmolarity ([3]; 4% solution) | Osmolarity ([3]; 5% solution) | Osmolarity ([3]; 6% solution) | Osmolarity ([3]; 7% solution) | Ad-GFP gene transfer at 1-7% tonicities [2] | also measured
1 | O=C(O)CN(CCOCCOCCN(CC(=O)O)CC(=O)O)CC(=O)O [EGTA] | reduced TEER | increased gene transfer | – | – | – | – | – | – | – | – | –
2 | [Cl-].[K+] [KCl, potassium chloride] | – | – | 268 mOsmol/l | 537 mOsmol/l | 805 mOsmol/l | 1073 mOsmol/l | 1341 mOsmol/l | 1610 mOsmol/l | 1878 mOsmol/l | Dose-dependent increases | Osmolarity ([3]; 3.6% solution): 970 mOsmol/l
3 | O=C([O-])[C@H](O)[C@@H](O)[C@H](O)[C@H](O)CO.[Na+] [NaGluconate, sodium gluconate] | – | – | – | – | – | – | – | – | – | – | Osmolarity ([3]; 3.6% solution): 120 mOsmol/l
4 | CO/C1=C\C(C)=C\[C@@H](C)[C@@H](O)[C@@H](C)C/C(C)=C/C=C/[C@H](OC)[C@@H]([C@@H](C)[C@@H](O)[C@H](C)[C@@]2(O)C[C@@H](O)[C@H](C)[C@@H](C(C)C)O2)OC1=O [bafilomycin A1] | – | – | – | – | – | – | – | – | – | – | NaCl enhanced Ad5-GFP transduction after inhibitor [4]: significantly decreased
5 | CCN(CC)CCCC(C)Nc1ccnc2cc(Cl)ccc12 (stereo not shown) [chloroquine] | – | – | – | – | – | – | – | – | – | – | NaCl enhanced Ad5-GFP transduction after inhibitor [4]: significantly decreased
6 | COc1cccc2c1C(=O)c1c(O)c3c(c(O)c1C2=O)C[C@@](O)(C(=O)CO)C[C@@H]3O[C@H]1C[C@H](N)[C@H](O)[C@H](C)O1 [doxorubicin] | decreased TEER | did not enhance Ad gene transfer | – | – | – | – | – | – | – | – | –
7 | OC[C@@H](O)[C@@H](O)[C@H](O)[C@H](O)CO [mannitol] | – | – | 55 mOsmol/l | 110 mOsmol/l | 170 mOsmol/l | 220 mOsmol/l | 270 mOsmol/l | 330 mOsmol/l | 380 mOsmol/l | did not enhance gene transfer | –
8 | N-methyl-d-glucamine gluconate [NMDG gluconate] | – | – | 342 mOsmol/l | 684 mOsmol/l | 1027 mOsmol/l | 1369 mOsmol/l | 1711 mOsmol/l | 2053 mOsmol/l | 3693 mOsmol/l | Dose-dependent increases | –
9 | lysophosphatidylcholine [LPC] | reduced TEER | increased gene transfer | – | – | – | – | – | – | – | – | –
